# Assay results as given in US9663448B2, “Tri-aryl compounds and compositions comprising the same” (BEN-GURION UNIVERSITY OF THE NEGEV RESEARCH AND DEVELOPMENT …, priority 2007, dated 2017).
# Experiment: Solubility noted at work-up of the synthesis
# Format: physicochemical
# Details: qualitative remark
# Protocol: 1,1,1-tris(4-hydroxyphenyl)ethane (1.53 gr, 5 mM), formaldehyde (1.35 gr, 45 mM) and 1-methyl piperazine (2.5 ml, 50 mM) in 20 ml water and 25 ml EtOH were refluxed for 3 hours. Evaporation provided a solid that by TLC and NMR contained 2 products, which was not the starting material. Formaldehyde (0.75 gr, 25 mM) and 1-methyl piperazine (1.5 ml, 30 mM) were added to 5 ml water and 10 ml EtOH and the reaction was refluxed for 4 hours. Evaporation and workup gave 3.3 gr light yellow-white solid, 67% yield, mp. […].
compound,measurement,setting,value
CN1CCN(Cc2cc(C(C)(c3cc(CN4CCN(C)CC4)c(O)c(CN4CCN(C)CC4)c3)c3cc(CN4CCN(C)CC4)c(O)c(CN4CCN(C)CC4)c3)cc(CN3CCN(C)CC3)c2O)CC1 [VIII],solubility in ethanol,solvent ethanol,Soluble
same,solubility in water,solvent water,very good solubility
